Assay results: patent US11000033B2, “Ketone or oxime compound, and herbicide” (NISSAN CHEMICAL CORPORATION, priority 2014, dated 2021)

How the values were obtained:
Assay type in all cases: in vivo
Apera spica-venti = experiment: Test Example 5: herbicidal effect by foliage application, plastic box (symbol L); conditions: 320 g/ha, 3 weeks after application
How it was run: (§1)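 Post-emergence spray; diluvial soil (sterilized), ~1.5 cm seed cover; greenhouse 25–30° C; 14-day-old plants; water-diluted emulsion at predetermined dose; visual score at 3 wk post-treatment.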

rice plant = experiment: Test Example 5: effect on crop by foliage application, plastic box (symbol b); conditions: 320 g/ha, 3 weeks after application
How it was run: (§2)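 Soil: sterilized diluvial. Container: plastic box, 21 × 13 cm, 7 cm deep. Sowing: spot-like, ~1.5 cm cover. Growth: greenhouse, 25° C. to 30° C.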

Stellaria media [1] = experiment: Test Example 5: herbicidal effect by foliage application, plastic box (symbol P); conditions: 320 g/ha, 3 weeks after application
How it was run: as §1

[2] = test system: directly sowed rice plant; experiment: Test Example 3: effect on crop by foliage application, Wagner pot (symbol b); conditions: application herbicide amount 320 g/ha
How it was run: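 Wagner pot (1/10000 are), alluvial soil, submerged 0.1–0.5 cm; sown E. crus-galli var. crus-galli, L. chinensis, C. difformis, rice; greenhouse 25–30 °C.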

rapeseed = experiment: Test Example 5: effect on crop by foliage application, plastic box (symbol g); conditions: 320 g/ha, 3 weeks after application
How it was run: as §2

[3] = test system: Echinochloa oryzacola Vasing.; experiment: Test Example 2: herbicidal activity, application during weed generation in submerged conditions (symbol A); conditions: Table 23; application herbicide amount 320 g/ha; grade 0-5 by criteria of Test Example 1
How it was run: (§3)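 Visual herbicidal ratings, taken three weeks after dosing, reflect post-emergence water-surface application to seedlings at one to two leaves. Conditions: co-sown weeds in alluvial soil flooded to 4 cm, greenhouse held at 25° C. to 30° C.; compound given as water-diluted emulsion at a fixed herbicide amount.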

Stellaria media [4] = experiment: Test Example 4: herbicidal effect by soil treatment (symbol P)
How it was run: (§4)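 Seeds were sown in sterilized diluvial soil, covered with about 1.5 cm of soil, and the soil surface was sprayed with a water-diluted emulsion of the compound at a predetermined rate. Plants grew in a greenhouse at 25° C. to 30° C.; effects were scored visually 3 weeks after application.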

Monochoria vaginalis = experiment: Test Example 2: herbicidal activity, application during weed generation in submerged conditions (symbol C); conditions: Table 23; application herbicide amount 320 g/ha; grade 0-5 by criteria of Test Example 1
How it was run: as §3

[5] = test system: Echinochloa oryzacola Vasing.; experiment: Test Example 1: herbicidal activity, application before weed generation in submerged conditions (symbol A); conditions: application herbicide amount 320 g/ha
How it was run: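 Weed control was rated three weeks after treatment on a 0–5 scale, from 5% or lower up to 90% or more. Pre-emergence water-surface application of diluted emulsion at a predetermined rate was made on the day of sowing, in flooded (4 cm water) pots containing rice seedlings, kept at 25–30 °C under glass.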

Digitaria ciliaris = experiment: Test Example 5: herbicidal effect by foliage application, plastic box (symbol F); conditions: 320 g/ha, 3 weeks after application
How it was run: as §1

Abutilon theophrasti = experiment: Test Example 4: herbicidal effect by soil treatment (symbol M)
How it was run: as §4

[6] = test system: Echinochloa crus-galli var. crus-galli; experiment: Test Example 4: herbicidal effect by soil treatment (symbol H)
How it was run: as §4

Cyperus difformis = experiment: Test Example 3: herbicidal effect by foliage application, Wagner pot (symbol E); conditions: application herbicide amount 320 g/ha
How it was run: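 Herbicidal activity was rated three weeks after a foliar spray of diluted emulsion concentrate, applied at a predetermined dose to plants grown for 14 days from seed in waterlogged alluvial soil within a 25–30 °C greenhouse.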

Avena fatua = experiment: Test Example 5: herbicidal effect by foliage application, plastic box (symbol I); conditions: 320 g/ha, 3 weeks after application
How it was run: as §1

[7] = application herbicide amount 320 g/ha

Compound	L: Apera spica-venti, herbicidal effect grade (Apera spica-venti)	b: directly sowed rice plant, effect on crop grade (rice plant)	P: Stellaria media, herbicidal effect grade (Stellaria media [1])	effect on crop b (directly sowed rice plant), grade 0-5 [2]	g: rapeseed, effect on crop grade (rapeseed)	Herbicidal effect grade, A: Echinochloa oryzacola Vasing. [3]	Herbicidal effect grade, C: Monochoria vaginalis (Monochoria vaginalis)	Herbicidal effect grade, A: Echinochloa oryzacola Vasing. [5]	F: Digitaria ciliaris, herbicidal effect grade (Digitaria ciliaris)	herbicidal effect on E, grade 0-5 (Cyperus difformis)	I: Avena fatua, herbicidal effect grade (Avena fatua)	P: Stellaria media, herbicidal effect grade (Stellaria media [4]; 320 g/ha)	M: Abutilon theophrasti, herbicidal effect grade (Abutilon theophrasti; 320 g/ha)	H: Echinochloa crus-galli var. crus-galli, herbicidal effect grade ([6]; 320 g/ha)	P: Stellaria media, herbicidal effect grade (Stellaria media [4]; [7])	M: Abutilon theophrasti, herbicidal effect grade (Abutilon theophrasti; [7])	H: Echinochloa crus-galli var. crus-galli, herbicidal effect grade [6, 7]	further results
CON=C(C)CC1CC(OCC#N)=C(c2c(C)cc(C)cc2C)C1=O (stereo not drawn) [1-013]	4 (Herbicidal ratio of 70% or higher and lower than 90%)	2 (Herbicidal ratio of 20% or higher and lower than 40%)	0 (Herbicidal ratio of 5% or lower (almost no effect))	0 (Herbicidal ratio of 5% or lower (almost no effect))	4 (Herbicidal ratio of 70% or higher and lower than 90%)	0 (Herbicidal ratio of 5% or lower (almost no effect))	0 (Herbicidal ratio of 5% or lower (almost no effect))	0 (Herbicidal ratio of 5% or lower (almost no effect))	0 (Herbicidal ratio of 5% or lower (almost no effect))	0 (Herbicidal ratio of 5% or lower (almost no effect))	0 (Herbicidal ratio of 5% or lower (almost no effect))	–	–	–	–	–	–	P (Stellaria media) herbicidal effect grade (Stellaria media [4]; [7]): 0 (Herbicidal ratio of 5% or lower (almost no effect)); M (Abutilon theophrasti) herbicidal effect grade (Abutilon theophrasti; [7]): 0 (Herbicidal ratio of 5% or lower (almost no effect)); H (Echinochloa crus-galli var. crus-galli) herbicidal effect grade [6, 7]: 0 (Herbicidal ratio of 5% or lower (almost no effect))
CON=C(C)CC1CC(OC(=O)c2ccccc2C(F)(F)F)=C(c2c(C)cc(C)cc2C)C1=O (stereo not drawn) [1-154]	–	–	–	5 (Herbicidal ratio of 90% or more (almost completely withered))	–	5 (Herbicidal ratio of 90% or more (almost completely withered))	4 (Herbicidal ratio of 70% or higher and lower than 90%)	5 (Herbicidal ratio of 90% or more (almost completely withered))	–	5 (Herbicidal ratio of 90% or more (almost completely withered))	–	0 (Herbicidal ratio of 5% or lower (almost no effect))	4 (Herbicidal ratio of 70% or higher and lower than 90%)	5 (Herbicidal ratio of 90% or more (almost completely withered))	–	–	–	L: Apera spica-venti, herbicidal effect (criteria 0-5) (Apera spica-venti): 5 (Herbicidal ratio of 90% or more (almost completely withered)); b: directly sowed rice plant, effect on crop (criteria 0-5) (rice plant): 5 (Herbicidal ratio of 90% or more (almost completely withered)); P: Stellaria media, herbicidal effect (criteria 0-5) (Stellaria media [1]): 2 (Herbicidal ratio of 20% or higher and lower than 40%); g: rapeseed, effect on crop (criteria 0-5) (rapeseed): 4 (Herbicidal ratio of 70% or higher and lower than 90%); F: Digitaria ciliaris, herbicidal effect (criteria 0-5) (Digitaria ciliaris): 5 (Herbicidal ratio of 90% or more (almost completely withered)); I: Avena fatua, herbicidal effect (criteria 0-5) (Avena fatua): 5 (Herbicidal ratio of 90% or more (almost completely withered))
CCOC(=O)C(CC)(C(C)=O)C1CC(O)=C(c2c(C)cc(C)cc2C)C1=O (stereo not drawn) [2-012]	0 (Herbicidal ratio of 5% or lower (almost no effect))	4 (Herbicidal ratio of 70% or higher and lower than 90%)	0 (Herbicidal ratio of 5% or lower (almost no effect))	0 (Herbicidal ratio of 5% or lower (almost no effect))	0 (Herbicidal ratio of 5% or lower (almost no effect))	0 (Herbicidal ratio of 5% or lower (almost no effect))	0 (Herbicidal ratio of 5% or lower (almost no effect))	0 (Herbicidal ratio of 5% or lower (almost no effect))	0 (Herbicidal ratio of 5% or lower (almost no effect))	0 (Herbicidal ratio of 5% or lower (almost no effect))	0 (Herbicidal ratio of 5% or lower (almost no effect))	–	–	–	0 (Herbicidal ratio of 5% or lower (almost no effect))	0 (Herbicidal ratio of 5% or lower (almost no effect))	0 (Herbicidal ratio of 5% or lower (almost no effect))	–
CON=C(C)CC1CC(O)=C(c2c(C)cc(-c3ccc(OC)cc3)cc2C)C1=O (mixture of isomers) [6-017]	5 (Herbicidal ratio of 90% or more (almost completely withered))	5 (Herbicidal ratio of 90% or more (almost completely withered))	1 (Herbicidal ratio of 5% or higher and lower than 20%)	5 (Herbicidal ratio of 90% or more (almost completely withered))	3 (Herbicidal ratio of 40% or higher and lower than 70%)	4 (Herbicidal ratio of 70% or higher and lower than 90%)	0 (Herbicidal ratio of 5% or lower (almost no effect))	5 (Herbicidal ratio of 90% or more (almost completely withered))	5 (Herbicidal ratio of 90% or more (almost completely withered))	4 (Herbicidal ratio of 70% or higher and lower than 90%)	5 (Herbicidal ratio of 90% or more (almost completely withered))	–	–	–	0 (Herbicidal ratio of 5% or lower (almost no effect))	0 (Herbicidal ratio of 5% or lower (almost no effect))	3 (Herbicidal ratio of 40% or higher and lower than 70%)	–
CON=C(C)CC1CC(OC(=O)Cc2ccc(OC)cc2)=C(c2c(C)cc(C)cc2C)C1=O (stereo not drawn) [1-156]	5 (Herbicidal ratio of 90% or more (almost completely withered))	5 (Herbicidal ratio of 90% or more (almost completely withered))	3 (Herbicidal ratio of 40% or higher and lower than 70%)	5 (Herbicidal ratio of 90% or more (almost completely withered))	4 (Herbicidal ratio of 70% or higher and lower than 90%)	5 (Herbicidal ratio of 90% or more (almost completely withered))	3 (Herbicidal ratio of 40% or higher and lower than 70%)	5 (Herbicidal ratio of 90% or more (almost completely withered))	5 (Herbicidal ratio of 90% or more (almost completely withered))	5 (Herbicidal ratio of 90% or more (almost completely withered))	5 (Herbicidal ratio of 90% or more (almost completely withered))	2 (Herbicidal ratio of 20% or higher and lower than 40%)	5 (Herbicidal ratio of 90% or more (almost completely withered))	5 (Herbicidal ratio of 90% or more (almost completely withered))	–	–	–	–
CON=C(C)CC1CC(OS(=O)(=O)c2ccc(C)cc2)=C(c2c(C)cc(C)cc2C)C1=O (stereo not drawn) [1-161]	5 (Herbicidal ratio of 90% or more (almost completely withered))	3 (Herbicidal ratio of 40% or higher and lower than 70%)	0 (Herbicidal ratio of 5% or lower (almost no effect))	5 (Herbicidal ratio of 90% or more (almost completely withered))	3 (Herbicidal ratio of 40% or higher and lower than 70%)	5 (Herbicidal ratio of 90% or more (almost completely withered))	3 (Herbicidal ratio of 40% or higher and lower than 70%)	5 (Herbicidal ratio of 90% or more (almost completely withered))	4 (Herbicidal ratio of 70% or higher and lower than 90%)	4 (Herbicidal ratio of 70% or higher and lower than 90%)	4 (Herbicidal ratio of 70% or higher and lower than 90%)	0 (Herbicidal ratio of 5% or lower (almost no effect))	0 (Herbicidal ratio of 5% or lower (almost no effect))	0 (Herbicidal ratio of 5% or lower (almost no effect))	–	–	–	–
